As usually defined, the IC50 is the concentration at which inhibition is half-maximal.

The record followed here is ChEMBL document CHEMBL5729575, “Alkynyl-substituted heterocyclic compound, preparation method therefor and medical use thereof” (2023).

Experiment [1] deals with Fibroblast growth factor receptor 2 (Homo sapiens, UniProt P21802). Description: FGFR2 Activity Inhibition Test: The reaction buffer contains the following components: 5-fold diluted enzymatic buffer/kinase 5x(Cisbio, Cat No. 62EZBFDD)(its main component is 50nM HEPES, pH 7.0), 5mM MgCl2 and 1 mM DTT, a human recombinant FGFR2 catalytic domain protein (amino acid 400-821) which was purchased from Yiqiao Shenzhou Biotech Co. Ltd., a 0.45ng/uL kinase solution diluted by the ….
Sequence of Fibroblast growth factor receptor 2 (P21802 whole entry, the tested form may be a part): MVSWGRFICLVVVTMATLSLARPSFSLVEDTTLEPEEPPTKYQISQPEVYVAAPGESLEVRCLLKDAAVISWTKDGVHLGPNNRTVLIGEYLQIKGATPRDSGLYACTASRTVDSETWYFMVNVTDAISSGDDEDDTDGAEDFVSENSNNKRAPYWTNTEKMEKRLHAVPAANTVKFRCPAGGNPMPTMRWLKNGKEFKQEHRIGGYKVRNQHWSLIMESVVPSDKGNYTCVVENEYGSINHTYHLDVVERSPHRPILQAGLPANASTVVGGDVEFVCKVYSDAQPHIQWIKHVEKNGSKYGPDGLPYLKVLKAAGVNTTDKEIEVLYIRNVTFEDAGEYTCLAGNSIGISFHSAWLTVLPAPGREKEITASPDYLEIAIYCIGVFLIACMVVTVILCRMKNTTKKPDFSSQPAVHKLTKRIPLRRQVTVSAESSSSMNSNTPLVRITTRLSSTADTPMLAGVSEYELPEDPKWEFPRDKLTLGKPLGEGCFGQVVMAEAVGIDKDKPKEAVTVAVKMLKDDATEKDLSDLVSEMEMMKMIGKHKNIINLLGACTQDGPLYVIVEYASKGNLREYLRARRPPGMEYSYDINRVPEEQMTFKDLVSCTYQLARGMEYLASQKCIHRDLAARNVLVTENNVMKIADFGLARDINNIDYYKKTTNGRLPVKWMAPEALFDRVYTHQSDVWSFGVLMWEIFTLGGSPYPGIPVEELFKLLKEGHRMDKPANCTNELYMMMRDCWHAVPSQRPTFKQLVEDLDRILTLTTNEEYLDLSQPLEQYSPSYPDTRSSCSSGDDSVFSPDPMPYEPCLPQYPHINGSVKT

For experiment [2], the target named is Fibroblast growth factor receptor 3 (Homo sapiens, UniProt P22607). Description: FGFR3 Activity Inhibition Test: The reaction buffer contains the following components: 5-fold diluted enzymatic buffer/kinase 5x(Cisbio, Cat No. 62EZBFDD)(its main component is 50nM HEPES, pH 7.0), 5mM MgCl2 and 1 mM DTT, a […] which was purchased from Yiqiao Shenzhou Biotech Co. Ltd., a 0.3 ng/uL kinase solution diluted by the ….
Sequence of Fibroblast growth factor receptor 3 (P22607 whole entry): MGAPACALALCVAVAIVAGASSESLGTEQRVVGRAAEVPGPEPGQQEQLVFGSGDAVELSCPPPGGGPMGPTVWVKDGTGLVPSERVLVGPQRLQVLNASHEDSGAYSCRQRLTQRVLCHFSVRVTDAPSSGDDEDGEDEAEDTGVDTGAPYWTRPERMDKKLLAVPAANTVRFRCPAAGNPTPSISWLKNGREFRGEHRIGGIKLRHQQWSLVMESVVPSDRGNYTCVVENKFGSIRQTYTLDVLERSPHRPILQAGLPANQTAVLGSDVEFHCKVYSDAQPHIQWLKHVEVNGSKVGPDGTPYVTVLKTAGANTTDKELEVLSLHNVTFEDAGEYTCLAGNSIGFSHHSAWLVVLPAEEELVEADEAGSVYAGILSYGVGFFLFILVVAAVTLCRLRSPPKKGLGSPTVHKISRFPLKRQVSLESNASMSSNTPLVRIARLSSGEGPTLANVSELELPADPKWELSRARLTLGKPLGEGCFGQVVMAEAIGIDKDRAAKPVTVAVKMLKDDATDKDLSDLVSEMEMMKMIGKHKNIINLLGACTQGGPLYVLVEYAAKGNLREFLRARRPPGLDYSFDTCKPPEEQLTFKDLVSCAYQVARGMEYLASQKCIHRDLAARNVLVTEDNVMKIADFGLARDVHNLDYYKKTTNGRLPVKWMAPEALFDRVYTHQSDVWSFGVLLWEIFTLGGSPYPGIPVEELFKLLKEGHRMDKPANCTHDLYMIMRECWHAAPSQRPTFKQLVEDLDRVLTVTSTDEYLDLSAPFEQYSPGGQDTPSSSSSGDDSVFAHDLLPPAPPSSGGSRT

Each structure is given as a SMILES string.

On to `CC#CC(=O)N1CC[C@H](n2nc(C#Cc3cc(OC)cc(OC)c3)c(C(N)=O)c2N)C1`, for which the half-maximal inhibitory concentration (IC50) in experiment [1] and in experiment [2] was < 10 nM throughout.
